According to patent publication US4666902A, “Tetrahydropyridazinone derivatives, processes for their preparation and their use” (Cassella Aktiengesellschaft, priority 1983, dated 1987):
pIC50: −log10 of the molar value.

Tested on: experimental thrombosis, arterial
Test: Arterial thrombotic protection, experimental thrombosis in vivo (Meng and Seuter)
Conditions: 0.3 mg/kg i.p.
Procedure: (§1) The values of the arterial thrombotic protection given in table 1 were determined in rats according to the method of Meng and Seuter (Naunyn-Schmiedeberg's Arch. Pharmacol. 301, 115 (1977)), those of the venous thrombotic protection were determined in rabbits according to the Harbauer method ("Versuche zur Entwicklung eines standardisierten venosen Thrombosemodells am Kaninchen" ("Tests for developing a standardized venous thrombotic model in rabbits"), 17th Angiologic Symposium, Kitzbuhel (1982)).
(§2) Influence on the experimental thrombosis in vivo

Row | Structure (SMILES) | Thrombotic Protection % arterial (rat)
1 | CC(=O)Nc1ccc(C2=NNC(=O)CC2CO)cc1 (centres unmarked) [drawing 46] | 30%

Same assay, conditions: 1 mg/kg i.p.

Row | Structure (SMILES) | Thrombotic Protection % arterial (rat)
2 | CC(=O)Nc1ccc(C2=NNC(=O)CC2CO)cc1 (centres unmarked) [drawing 46] | 80%
3 | O=C1CC(CO)C(c2ccc[nH]2)=NN1 (centres unmarked) [drawing 50] | 42%

Tested on: experimental thrombosis, venous
Test: Venous thrombotic protection, experimental thrombosis in vivo (Harbauer)
Conditions: 0.3 mg/kg i.p.
Procedure: as §1, §2

Row | Structure (SMILES) | Thrombotic Protection % venous (rabbit)
4 | CC(=O)Nc1ccc(C2=NNC(=O)CC2CO)cc1 (centres unmarked) [drawing 46] | 60%

Same assay, conditions: 1 mg/kg i.p.

Row | Structure (SMILES) | Thrombotic Protection % venous (rabbit)
5 | CC(=O)Nc1ccc(C2=NNC(=O)CC2CO)cc1 (centres unmarked) [drawing 46] | 78%

Same assay, conditions: 3 mg/kg i.p.

Row | Structure (SMILES) | Thrombotic Protection % venous (rabbit)
6 | O=C1CC(CO)C(c2ccc(OCCn3ccnc3)cc2)=NN1 (centres unmarked) [drawing 47] | 57%

Same assay, conditions: 10 mg/kg i.p.

Row | Structure (SMILES) | Thrombotic Protection % venous (rabbit)
7 | O=C1CC(CO)C(c2ccc(Cl)cc2)=NN1 (centres unmarked) [drawing 44] | 57%
8 | Cc1nnc(COc2ccc(C3=NNC(=O)CC3CO)cc2)o1 (centres unmarked) [drawing 45] | 50%
9 | O=C1CC(CO)C(c2ccc(OCCn3ccnc3)cc2)=NN1 (centres unmarked) [drawing 47] | 86%
10 | O=C1CC(CO)C(c2ccc(N3CCCC3=O)cc2)=NN1 (centres unmarked) [drawing 48] | 83%

Tested on: action of arachidonic acid
Test: Influence on the action of arachidonic acid in vivo under anesthesia (Lefort and Vargaftig)
Set-up: species or system guinea pig; key: -: no action; (+): weak; +: medium; ++: strong; +++: very strong
Conditions: 0.1-1 mg/kg i.v.
Procedure: The values of Table 2 showing the influence on the action of arachidonic acid were determined in guinea pigs under anesthesia using the Lefort and Vargaftig method (Br. J. Pharmac. 63, 35 (1978)).
Influence on the action of arachidonic acid (arachidonic acid
500 g/kg i.v.) in vivo in guinea pigs under anesthesia

Row | Structure (SMILES) | PGI2 Effect: Lowering of blood pressure | TXA2 Effect: Bronchospasm | TXA2 Effect: Thrombocytopenia
11 | CC(=O)Nc1ccc(C2=NNC(=O)CC2CO)cc1 (centres unmarked) [drawing 65] | ++ | ++ | ++

Same assay, conditions: 0.3-3 mg/kg i.v.

Row | Structure (SMILES) | PGI2 Effect: Lowering of blood pressure | TXA2 Effect: Bronchospasm | TXA2 Effect: Thrombocytopenia
12 | O=C1CC(CO)C(c2ccc(N3CCCC3=O)cc2)=NN1 (centres unmarked) [drawing 62] | + | + | ++
13 | COc1ccc(C2=NNC(=O)CC2CO)cc1OC (centres unmarked) [drawing 69] | +++ | ++ | ++

Same assay, conditions: 1-10 mg/kg i.v.

Row | Structure (SMILES) | PGI2 Effect: Lowering of blood pressure | TXA2 Effect: Bronchospasm | TXA2 Effect: Thrombocytopenia
14 | Cc1cc(COc2ccc(C3=NNC(=O)CC3CO)cc2)[nH]c(=O)c1 (centres unmarked) | - | (+) | (+)
15 | O=C1CC(CO)C(c2ccco2)=NN1 (centres unmarked) | - | (+) | (+)
16 | O=C1CC(CO)C(c2ccccc2)=NN1 (centres unmarked) [drawing 53] | (+) | (+) | -
17 | Cc1ccc(C2=NNC(=O)CC2CO)cc1 (centres unmarked) [drawing 54] | (+) | (+) | (+)
18 | COc1ccc(C2=NNC(=O)CC2CO)cc1 (centres unmarked) [drawing 55] | ++ | (+) | -
19 | O=C1CC(CO)C(c2ccc(Cl)cc2)=NN1 (centres unmarked) [drawing 56] | (+) | (+) | (+)
20 | O=C1CC(CO)C(c2cccc([N+](=O)[O-])c2)=NN1 (centres unmarked) [drawing 57] | (+ ) | ++ | +
21 | Cc1nnc(COc2ccc(C3=NNC(=O)CC3CO)cc2)o1 (centres unmarked) [drawing 58] | + | ++ | ++
22 | COc1ccc(C2=NNC(=O)CC2COC(=O)c2cccnc2)cc1OC (centres unmarked) [drawing 59] | - | (+) | (+)
23 | CC(=O)Nc1ccc(C2=NN(C)C(=O)CC2CO)cc1 (centres unmarked) [drawing 61] | (+) | (+) | (+)
24 | O=C1CC(CO)C(c2ccc[nH]2)=NN1 (centres unmarked) [drawing 63] | (+) | ++ | +++
25 | O=C1CC(CO)C(c2ccc(OCCn3ccnc3)cc2)=NN1 (centres unmarked) [drawing 66] | (+) | + | ++
26 | O=C1CC(CO)C(c2c[nH]c3ccccc23)=NN1 (centres unmarked) [drawing 70] | (+) | + | +++
27 | COc1ccc(C2=NNC(=O)CC2COC(=O)COc2ccc(Cl)cc2)cc1OC (centres unmarked) [drawing 71] | + | (+) | -
28 | O=C1CC(CO)C(c2ccc(OCc3cccnc3)cc2)=NN1 (centres unmarked) [drawing 73] | - | + | +

Same assay, conditions: 3-10 mg/kg i.v.

Row | Structure (SMILES) | PGI2 Effect: Lowering of blood pressure | TXA2 Effect: Bronchospasm | TXA2 Effect: Thrombocytopenia
29 | O=C1CC(CO)C(c2cccs2)=NN1 (centres unmarked) [drawing 68] | (+) | (+) | (+)

Tested on: thrombocyte aggregation induced by arachidonic acid
Test: Inhibition of thrombocyte aggregation in vitro (Born), arachidonic acid
Type: cell-based
Conditions: induced by 0.36 mM of arachidonic acid
Procedure: (§3) The values of tables 3 to 5 showing the inhibition of the thrombocytic aggregation were determined in vitro according to the Born method (J. Physiol. 162 67 P (1962)) using arachidonic acid, thrombin or adenosine diphosphate as aggregation agent.
Inhibition of thrombocyte aggregation in vitro (according to BORN)
induced by 0.36 mM of arachidonic acid

Row | Structure (SMILES) | pIC50
30 | Cc1cc(COc2ccc(C3=NN(C)C(=O)CC3CO)cc2)[nH]c(=O)c1 (centres unmarked) | 4.82
31 | COc1ccc(C2=NN(C)C(=O)CC2CO)cc1OC (centres unmarked) | 4.40
32 | COc1cc(C2=NNC(=O)CC2CO)cc(OC)c1OC (centres unmarked) | 5.22
33 | O=C1CC(CO)C(c2ccccc2)=NN1 (centres unmarked) [drawing 75] | 5.30
34 | O=C1CC(CO)C(c2cccc([N+](=O)[O-])c2)=NN1 (centres unmarked) [drawing 78] | 5.82
35 | Cc1nnc(COc2ccc(C3=NNC(=O)CC3CO)cc2)o1 (centres unmarked) [drawing 79] | 6.00
36 | O=C1CC(CO)C(c2ccc(OCCn3ccnc3)cc2)=NN1 (centres unmarked) [drawing 80] | 5.70
37 | N#Cc1ccc(C2=NNC(=O)CC2CO)cc1 (centres unmarked) [drawing 81] | 6.52
38 | CC(=O)Nc1ccc(C2=NN(C)C(=O)CC2CO)cc1 (centres unmarked) [drawing 82] | < 4.00
39 | COc1ccc(C2=NNC(=O)CC2COC(=O)COc2ccc(Cl)cc2)cc1OC (centres unmarked) [drawing 83] | 5.40
40 | O=C1CC(CO)C(c2ccc(OCc3cccnc3)cc2)=NN1 (centres unmarked) [drawing 85] | 6.35
41 | O=C1CC(CO)C(c2cccs2)=NN1 (centres unmarked) [drawing 86] | 4.30
42 | O=C1CC(CO)C(c2ccc(N3CCCC3=O)cc2)=NN1 (centres unmarked) [drawing 87] | 6.40
43 | COc1ccc(C2=NNC(=O)CC2CO)cc1OC (centres unmarked) [drawing 88] | 6.22
44 | O=C1CC(CO)C(c2ccc(Cl)cc2)=NN1 (centres unmarked) [drawing 90] | 6.05
45 | CC(=O)Nc1ccc(C2=NNC(=O)CC2CO)cc1 (centres unmarked) [drawing 91] | 6.70
46 | O=C1CC(CO)C(c2c[nH]c3ccccc23)=NN1 (centres unmarked) [drawing 93] | 6.26
47 | COc1ccc(C2=NNC(=O)CC2COC(=O)c2cccnc2)cc1OC (centres unmarked) [drawing 94] | 4.52

Tested on: thrombocyte aggregation induced by thrombin
Test: Inhibition of thrombocyte aggregation in vitro (Born), thrombin
Type: cell-based
Conditions: induced by 0.2-0.4 N.I.H. units/ml (thrombin)
Procedure: as §3
Inhibition of thrombocyte aggregation in vitro
(according to BORN) induced by 0.2-0.4 N.I.H. units/ml

Row | Structure (SMILES) | pIC50
48 | COc1ccc(C2=NNC(=O)CC2CO)cc1 (centres unmarked) [drawing 98] | 5.60
49 | O=C1CC(CO)C(c2ccc(Cl)cc2)=NN1 (centres unmarked) [drawing 99] | 5.22
50 | CC(=O)Nc1ccc(C2=NNC(=O)CC2CO)cc1 (centres unmarked) [drawing 100] | 6.15
51 | COc1ccc(C2=NNC(=O)CC2CO)cc1OC (centres unmarked) [drawing 101] | 5.70
52 | COc1ccc(C2=NNC(=O)CC2COC(=O)COc2ccc(Cl)cc2)cc1OC (centres unmarked) [drawing 102] | < 4.00

Tested on: thrombocyte aggregation induced by ADP
Test: Inhibition of thrombocyte aggregation in vitro (Born), ADP
Type: cell-based
Conditions: induced by 10 μM ADP
Procedure: as §3
Inhibition of thrombocyte aggregation in vitro (according to
BORN) induced by 10 μM ADP

Row | Structure (SMILES) | pIC50
53 | O=C1CC(CO)C(c2ccccc2)=NN1 (centres unmarked) [drawing 105] | < 4.00
54 | Cc1ccc(C2=NNC(=O)CC2CO)cc1 (centres unmarked) [drawing 106] | 3.82
55 | COc1ccc(C2=NNC(=O)CC2CO)cc1 (centres unmarked) [drawing 107] | 4.30
56 | O=C1CC(CO)C(c2ccc(Cl)cc2)=NN1 (centres unmarked) [drawing 108] | 4.15
57 | CC(=O)Nc1ccc(C2=NNC(=O)CC2CO)cc1 (centres unmarked) [drawing 109] | 5.00
58 | COc1ccc(C2=NNC(=O)CC2CO)cc1OC (centres unmarked) [drawing 110] | 5.05
59 | Cc1nnc(COc2ccc(C3=NNC(=O)CC3CO)cc2)o1 (centres unmarked) [drawing 111] | 4.70
60 | O=C1CC(CO)C(c2ccc(OCCn3ccnc3)cc2)=NN1 (centres unmarked) [drawing 112] | 3.82
61 | O=C1CC(CO)C(c2ccc(N3CCCC3=O)cc2)=NN1 (centres unmarked) [drawing 113] | 4.70
62 | O=C1CC(CO)C(c2ccc(OCc3cccnc3)cc2)=NN1 (centres unmarked) [drawing 114] | 4.44
63 | N#Cc1ccc(C2=NNC(=O)CC2CO)cc1 (centres unmarked) [drawing 115] | 4.70
